Test results published in PMC12627933, “A First-In-Human Study of the SUMOylation Inhibitor Subasumstat in Patients with Advanced/Metastatic Solid Tumors or Relapsed/Refractory Hematologic Malignancies” (Cancer Research Communications, 2025).

Test: Safety: treatment-emergent adverse events (NCI CTCAE v5.0; CRS per ASTCT), phase I/II study NCT03648372
Assay type: in vivo
Protocol: This study comprised two parts: a phase I dose escalation and a phase II dose expansion (Fig. 1). In the dose-escalation phase, patients were enrolled to receive subasumstat intravenously as a 1-hour (±10 minutes) infusion on days 1, 4, 8, and 11 of a 21-day cycle (biweekly schedule). […] Dose escalation was based on cohort with an adaptive design using Bayesian logistic regression modeling with overdose control. The starting dose of subasumstat was based on Good Laboratory Practice animal toxicity studies and supported by the estimation of a minimum anticipated biologically effective level. A detailed description of dose-limiting toxicities (DLT) is presented in the Supplementary Methods.
The phase II dose-expansion portion enrolled patients to receive the recommended phase II dose (RP2D) determined in phase I, with each cohort assessed separately using an adaptive two-stage design for a single proportion (see Supplementary Methods). For stage 1, each cohort was analyzed when a prespecified number of patients were enrolled and had the potential to have at least one posttreatment scan [i.e., after the first disease assessment, 2 months from cycle 1 day 1 (C1D1)]. If the prespecified minimal response rate was not achieved in the first stage for a given cohort, that cohort would be closed to enrollment. […] The final analysis of the primary endpoints for each cohort would take place when all ongoing patients had the opportunity to complete the 6-month disease assessment. Across both phases, patients received subasumstat for up to 1 year or until confirmed disease progression, unacceptable toxicity, if any withdrawal criterion from the study was met, or if discontinuation of subasumstat occurred.
The occurrence of DLTs was assessed during cycle 1 (DLTs are described in the Supplementary Methods). Treatment-emergent adverse events (TEAE) were graded according to NCI Common Terminology Criteria for Adverse Events version 5.0, except for cytokine release syndrome (CRS), which was graded according to the American Society for Transplantation and Cellular Therapy Consensus Grading for CRS ([20]).
It was anticipated that approximately 70 DLT-evaluable patients would be enrolled for dose escalation. The safety analysis set included all patients who received at least one dose, even if incomplete, of subasumstat. […] The overall response rate (ORR) was defined as the proportion of patients who achieved complete response and partial response (PR) during the study. The disease control rate (DCR) was defined as the proportion of patients who achieved […] as per RECIST v1.1 for solid tumors or Lugano classification for lymphomas. […] Progression-free survival was summarized descriptively using the Kaplan–Meier method.

Cc1sc(C(=O)c2cncnc2N[C@@H]2C[C@H](COS(N)(=O)=O)[C@@H](O)C2)cc1[C@@H]1NCCc2ccc(Cl)cc21 [subasumstat]
48 (57.1) n (%): Grade ≥3 TEAEs (Phase I (n = 84)) | Patients with at least one grade ≥3 TEAE (Phase I (n = 84))
13 (15.5) n (%): Subasumstat-related TEAE: Vomiting (Phase I (n = 84))
7 (28.0) n (%): Subasumstat-related TEAE: Fatigue (Phase II (n = 25))
29 (34.5) n (%): Subasumstat-related TEAE: Nausea (Phase I (n = 84)) | TEAE: Diarrhea (Phase I (n = 84))
10 (11.9) n (%): On-study deaths (Phase I (n = 84)) | Subasumstat-related TEAE: Decreased appetite (Phase I (n = 84)) | TEAE: Dehydration (Phase I (n = 84))
65 (77.4) n (%): TEAEs related to subasumstat (Phase I (n = 84))
6 (24.0) n (%): Subasumstat-related TEAE: Chills (Phase II (n = 25)) | Subasumstat-related TEAE: Diarrhea (Phase II (n = 25))
1 (4.0) n (%): Grade ≥3 TEAE: Hypertension (Phase II (n = 25)) | Grade ≥3 TEAE: Lymphopenia (Phase II (n = 25)) | Grade ≥3 TEAE: Pneumonia (Phase II (n = 25)) | Grade ≥3 TEAE: Thrombocytopenia (Phase II (n = 25)) | Grade ≥3 subasumstat-related TEAE: Thrombocytopenia (Phase II (n = 25)) | Subasumstat-related TEAE: IRR (Phase II (n = 25))
5 (20.0) n (%): Grade ≥3 TEAE: Anemia (Phase II (n = 25)) | Serious adverse events related to subasumstat (Phase II (n = 25)) | Subasumstat-related TEAE: Headache (Phase II (n = 25))
18 (21.4) n (%): Grade ≥3 TEAEs related to subasumstat (Phase I (n = 84)) | Patients with at least one grade ≥3 subasumstat-related TEAE (Phase I (n = 84))
8 (9.5) n (%): TEAE: Stomatitis (Phase I (n = 84)) | TEAEs leading to discontinuation (Phase I (n = 84))
28 (33.3) n (%): TEAE: Pyrexia (Phase I (n = 84))
21 (25.0) n (%): Subasumstat-related TEAE: Headache (Phase I (n = 84))
22 (26.2) n (%): TEAE: Dyspnea (Phase I (n = 84))
4 (16.0) n (%): Grade ≥3 TEAE: Neutropenia (Phase II (n = 25)) | Grade ≥3 subasumstat-related TEAE: Neutropenia (Phase II (n = 25)) | Subasumstat-related TEAE: Anemia (Phase II (n = 25))
15 (17.9) n (%): Subasumstat-related TEAE: Diarrhea (Phase I (n = 84)) | TEAE: Peripheral edema (Phase I (n = 84))
37 (44.0) n (%): Serious adverse events (Phase I (n = 84))
12 (14.3) n (%): TEAE: Anemia (Phase I (n = 84)) | TEAE: Arthralgia (Phase I (n = 84)) | TEAE: Back pain (Phase I (n = 84))
4 (4.8) n (%): Grade ≥3 TEAE: Abdominal pain (Phase I (n = 84)) | Grade ≥3 TEAE: Dyspnea (Phase I (n = 84)) | Grade ≥3 TEAE: Small intestinal obstruction (Phase I (n = 84)) | Grade ≥3 TEAE: Vomiting (Phase I (n = 84)) | Grade ≥3 subasumstat-related TEAE: Lymphocyte count decreased (Phase I (n = 84)) | Subasumstat-related TEAE: Anemia (Phase I (n = 84)) | Subasumstat-related TEAE: Dyspnea (Phase I (n = 84))
3 (3.6) n (%): TEAEs leading to discontinuation related to subasumstat (Phase I (n = 84))
23 (27.4) n (%): Subasumstat-related TEAE: Pyrexia (Phase I (n = 84))
6 (7.1) n (%): Subasumstat-related TEAE: Myalgia (Phase I (n = 84))
1 (1.2) n (%): Grade ≥3 TEAE: Hypertension (Phase I (n = 84)) | Grade ≥3 TEAE: Lymphopenia (Phase I (n = 84)) | Grade ≥3 TEAE: Platelet count increased (Phase I (n = 84)) | Grade ≥3 TEAE: Pneumonia (Phase I (n = 84)) | Grade ≥3 TEAE: Thrombocytopenia (Phase I (n = 84)) | Grade ≥3 subasumstat-related TEAE: Anemia (Phase I (n = 84)) | Grade ≥3 subasumstat-related TEAE: Platelet count increased (Phase I (n = 84)) | Grade ≥3 subasumstat-related TEAE: Thrombocytopenia (Phase I (n = 84))
5 (6.0) n (%): Grade ≥3 TEAE: Fatigue (Phase I (n = 84)) | Grade ≥3 TEAE: Lymphocyte count decreased (Phase I (n = 84)) | Subasumstat-related TEAE: IRR (Phase I (n = 84))
14 (16.7) n (%): TEAE: Constipation (Phase I (n = 84))
42 (50.0) n (%): TEAE: Fatigue (Phase I (n = 84))
9 (10.7) n (%): AESI (adverse event of special interest) (Phase I (n = 84)) | AESI related to subasumstat (Phase I (n = 84)) | AESI: CRS (Phase I (n = 84)) | Grade ≥3 TEAE: Anemia (Phase I (n = 84)) | Subasumstat-related TEAE: CRS (Phase I (n = 84)) | TEAE: CRS (Phase I (n = 84)) | TEAE: Pleural effusion (Phase I (n = 84))
30 (35.7) n (%): TEAE: Headache (Phase I (n = 84))
2 (8.0) n (%): Grade ≥3 TEAE: Abdominal pain (Phase II (n = 25)) | Grade ≥3 TEAE: Acute kidney injury (Phase II (n = 25)) | Grade ≥3 TEAE: Hyperbilirubinemia (Phase II (n = 25)) | Grade ≥3 TEAE: Muscular weakness (Phase II (n = 25)) | Grade ≥3 TEAE: Platelet count increased (Phase II (n = 25)) | Grade ≥3 subasumstat-related TEAE: Muscular weakness (Phase II (n = 25)) | Grade ≥3 subasumstat-related TEAE: Platelet count increased (Phase II (n = 25)) | On-study deaths (Phase II (n = 25)) | Subasumstat-related TEAE: Dyspnea (Phase II (n = 25)) | Subasumstat-related TEAE: Myalgia (Phase II (n = 25))
41 (48.8) n (%): TEAE: Nausea (Phase I (n = 84))
81 (96.4) n (%): TEAEs (Phase I (n = 84))
17 (20.2) n (%): Subasumstat-related TEAE: Chills (Phase I (n = 84)) | TEAE: Abdominal pain (Phase I (n = 84))
27 (32.1) n (%): Subasumstat-related TEAE: Fatigue (Phase I (n = 84)) | TEAE: Vomiting (Phase I (n = 84))
20 (23.8) n (%): TEAE: Chills (Phase I (n = 84))
7 (8.3) n (%): Grade ≥3 TEAE: Hypokalemia (Phase I (n = 84)) | Serious adverse events related to subasumstat (Phase I (n = 84)) | Subasumstat-related TEAE: Hypokalemia (Phase I (n = 84))
0 n (%): Grade ≥3 TEAE: Hyperbilirubinemia (Phase I (n = 84)) | Grade ≥3 TEAE: Muscular weakness (Phase I (n = 84)) | Grade ≥3 TEAE: Neutropenia (Phase I (n = 84)) | Grade ≥3 subasumstat-related TEAE: Muscular weakness (Phase I (n = 84)) | Grade ≥3 subasumstat-related TEAE: Neutropenia (Phase I (n = 84)) | Grade ≥3 TEAE: Aspartate aminotransferase increased (Phase II (n = 25)) | Grade ≥3 TEAE: Blood bilirubin increased (Phase II (n = 25)) | Grade ≥3 TEAE: Dyspnea (Phase II (n = 25)) | Grade ≥3 TEAE: Fatigue (Phase II (n = 25)) | Grade ≥3 TEAE: Hypokalemia (Phase II (n = 25)) | Grade ≥3 TEAE: Hypomagnesemia (Phase II (n = 25)) | Grade ≥3 TEAE: Hypophosphatemia (Phase II (n = 25)) | Grade ≥3 TEAE: Lymphocyte count decreased (Phase II (n = 25)) | Grade ≥3 TEAE: Nausea (Phase II (n = 25)) | Grade ≥3 TEAE: Pleural effusion (Phase II (n = 25)) | Grade ≥3 TEAE: Pneumonitis (Phase II (n = 25)) | Grade ≥3 TEAE: Pyrexia (Phase II (n = 25)) | Grade ≥3 TEAE: Small intestinal obstruction (Phase II (n = 25)) | Grade ≥3 TEAE: Vomiting (Phase II (n = 25)) | Grade ≥3 subasumstat-related TEAE: Aspartate aminotransferase increased (Phase II (n = 25)) | Grade ≥3 subasumstat-related TEAE: Hypokalemia (Phase II (n = 25)) | Grade ≥3 subasumstat-related TEAE: Lymphocyte count decreased (Phase II (n = 25)) | Grade ≥3 subasumstat-related TEAE: Pneumonitis (Phase II (n = 25)) | Subasumstat-related TEAE: Hypokalemia (Phase II (n = 25))
11 (44.0) n (%): Grade ≥3 TEAEs related to subasumstat (Phase II (n = 25)) | Patients with at least one grade ≥3 subasumstat-related TEAE (Phase II (n = 25)) | Serious adverse events (Phase II (n = 25))
3 (12.0) n (%): AESI (adverse event of special interest) (Phase II (n = 25)) | AESI related to subasumstat (Phase II (n = 25)) | AESI: CRS (Phase II (n = 25)) | Grade ≥3 subasumstat-related TEAE: Anemia (Phase II (n = 25)) | Subasumstat-related TEAE: CRS (Phase II (n = 25)) | Subasumstat-related TEAE: Decreased appetite (Phase II (n = 25))
18 (72.0) n (%): Grade ≥3 TEAEs (Phase II (n = 25)) | Patients with at least one grade ≥3 TEAE (Phase II (n = 25))
26 (31.0) n (%): TEAE: Decreased appetite (Phase I (n = 84))
11 (13.1) n (%): TEAE: Abdominal distension (Phase I (n = 84)) | TEAE: Hypophosphatemia (Phase I (n = 84)) | TEAE: Insomnia (Phase I (n = 84))
2 (2.4) n (%): Grade ≥3 TEAE: Acute kidney injury (Phase I (n = 84)) | Grade ≥3 TEAE: Aspartate aminotransferase increased (Phase I (n = 84)) | Grade ≥3 TEAE: Blood bilirubin increased (Phase I (n = 84)) | Grade ≥3 TEAE: Hypomagnesemia (Phase I (n = 84)) | Grade ≥3 TEAE: Hypophosphatemia (Phase I (n = 84)) | Grade ≥3 TEAE: Nausea (Phase I (n = 84)) | Grade ≥3 TEAE: Pleural effusion (Phase I (n = 84)) | Grade ≥3 TEAE: Pneumonitis (Phase I (n = 84)) | Grade ≥3 TEAE: Pyrexia (Phase I (n = 84)) | Grade ≥3 subasumstat-related TEAE: Aspartate aminotransferase increased (Phase I (n = 84)) | Grade ≥3 subasumstat-related TEAE: Hypokalemia (Phase I (n = 84)) | Grade ≥3 subasumstat-related TEAE: Pneumonitis (Phase I (n = 84))
